# Measurements reported in patent publication US11912693B2, “Compounds for modulating S1P1 activity and methods of using the same” (TREVENA, INC., priority 2017, dated 2024).
# What was measured:
# [1] = molecular target: T1, human sphingosine-1-phosphate receptor 1 (S1P1) (Homo sapiens (Human), UniProt P21453); test: Inhibition of cAMP production (HTRF cAMP HiRange), S1P1 CHO-K1 cells; type: cell-based; settings: for Emax: CHO-K1, efficacy (SPAN) normalized to fingolimod, read-out: hS1P1 cAMP SPAN
# Summary of the method: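 CHO-K1 cells stably co-expressing human S1P1 (C-terminal Prolink tag) and EA-β-arrestin2 were grown in AssayComplete Media 6 at 37° C. and 5% CO2, plated, and incubated overnight. Agonist-driven inhibition of intracellular cAMP was read by TR-FRET with the HTRF cAMP HiRange kit on a PheraStar reader. Potency is pEC50, and efficacy (SPAN) is normalized to fingolimod.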
# Target sequence in this assay (P21453 whole entry, looked up): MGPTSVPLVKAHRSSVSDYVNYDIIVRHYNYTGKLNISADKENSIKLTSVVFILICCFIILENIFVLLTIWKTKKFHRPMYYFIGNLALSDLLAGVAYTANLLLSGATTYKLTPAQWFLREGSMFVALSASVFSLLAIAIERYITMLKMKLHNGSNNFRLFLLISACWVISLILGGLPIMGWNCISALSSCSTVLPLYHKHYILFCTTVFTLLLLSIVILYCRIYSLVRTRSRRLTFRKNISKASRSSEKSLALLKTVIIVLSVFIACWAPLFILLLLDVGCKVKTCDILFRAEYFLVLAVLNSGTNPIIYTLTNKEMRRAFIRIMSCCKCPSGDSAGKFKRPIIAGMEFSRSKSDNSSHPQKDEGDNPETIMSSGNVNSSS
# [2] = molecular target: T1, human sphingosine-1-phosphate receptor 1 (S1P1); test: β-Arrestin2 recruitment assay (PathHunter), S1P1 CHO-K1 cells; type: cell-based; settings: for Emax: CHO-K1, efficacy (SPAN) normalized to fingolimod, read-out: hS1P1 B-arrestin2 SPAN
# Summary of the method: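 Enzyme-fragment complementation read-out: agonist-driven β-arrestin2 binding to ProLink-tagged human S1P1 in stable CHO-K1 cells restores β-galactosidase, measured 1 h at room temperature after a 60 min 37° C. compound incubation. Potency as pEC50, efficacy relative to fingolimod (SPAN).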
# Target sequence in this assay (P21453 whole entry, looked up): as above
# Target sequence in this assay (P32121 whole entry partner, looked up): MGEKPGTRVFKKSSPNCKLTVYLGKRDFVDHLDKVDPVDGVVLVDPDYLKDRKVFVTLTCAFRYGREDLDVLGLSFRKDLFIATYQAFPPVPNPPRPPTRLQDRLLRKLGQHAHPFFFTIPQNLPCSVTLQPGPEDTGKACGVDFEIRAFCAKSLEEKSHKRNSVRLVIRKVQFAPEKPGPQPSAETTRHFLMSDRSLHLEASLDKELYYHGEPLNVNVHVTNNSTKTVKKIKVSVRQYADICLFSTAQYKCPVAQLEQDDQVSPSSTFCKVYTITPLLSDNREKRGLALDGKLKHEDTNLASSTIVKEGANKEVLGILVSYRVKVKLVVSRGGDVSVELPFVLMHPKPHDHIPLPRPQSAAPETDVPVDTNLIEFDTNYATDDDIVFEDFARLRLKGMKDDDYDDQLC
# [3] = inhibition of cAMP production, S1P1 CHO-K1 cells
# [4] = β-arrestin2 recruitment, S1P1 CHO-K1 cells
Structure (SMILES),"hS1P1 cAMP pEC50 [1, 3]","hS1P1 B-arrestin2 pEC50 [2, 4]",Emax [1],Emax [2],"EC50 ([1]; inhibition of cAMP production, S1P1 CHO-K1 cells, read-out: hS1P1 cAMP pEC50 (converted))","EC50 ([2]; β-arrestin2 recruitment, S1P1 CHO-K1 cells, read-out: hS1P1 B-arrestin2 pEC50 (converted))"
"Cc1cncc(-c2nc(-c3ccc4c(c3)nnn4C(C)C)no2)c1 [Compound 159, 3-(1-isopropyl-1H-benzo[d][1,2,3]triazol-5-yl)-5-(5-methylpyridin-3-yl)-1,2,4-oxadiazole]",<6.5,<5,,,,
"COc1ccc(-c2nc(-c3ccc4c(c3)nnn4C(C)C)no2)c(C)c1 [Compound 90, 3-(1-isopropyl-1H-benzo[d][1,2,3]triazol-5-yl)-5-(4-methoxy-2-methylphenyl)-1,2,4-oxadiazole]",<6.5,>5,> 75%,> 75%,,
"COc1ccccc1-c1nc(-c2ccc3c(c2)nnn3C(C)C)co1 [Compound 575, 5-[2-(2-methoxyphenyl)-1,3-oxazol-4-yl]-1-(propan-2-yl)-1H-1,2,3-benzotriazole]",>6.5,>5,> 75%,> 75%,,
"CCC1(CC)CC(=O)c2cc(-c3nc(-c4cccnc4O)no3)ccc2O1 [Compound 258, 2,2-diethyl-6-(3-(2-hydroxypyridin-3-yl)-1,2,4-oxadiazol-5-yl)chroman-4-one]",<6.5,<5,,,,
"CC(C)Oc1ccc(-c2nc(-c3ccc4c(c3)nnn4C3CCCC3)no2)cc1 [Compound 121, 3-(1-cyclopentyl-1H-benzo[d][1,2,3]triazol-5-yl)-5-(4-isopropoxyphenyl)-1,2,4-oxadiazole]",<6.5,<5,< 75%,< 75%,,
"COc1ccccc1-c1noc(-c2ccc3[nH]ccc3c2)n1 [Compound 368, 5-(1H-indol-5-yl)-3-(2-methoxyphenyl)-1,2,4-oxadiazole]",<6.5,<5,,,,
"CC(C)n1ncc2cc(-c3nc(-c4ccccc4OC(F)(F)F)no3)ccc21 [Compound 331, 5-(1-isopropyl-1H-indazol-5-yl)-3-(2-(trifluoromethoxy)phenyl)-1,2,4-oxadiazole]",>6.5,>5,> 75%,> 75%,,
COC(=O)C12C3C4C1C1C2C3C41c1nc(-c2ccc3c(c2)nnn3C(C)C)no1 (stereo not shown) [Compound 378],,,< 75%,< 75%,> 0.316 µM,> 10 µM
"Brc1ccccc1-c1nc(-c2ccc3c(c2)nnn3C2CCCCC2)no1 [Compound 115, 5-(2-bromophenyl)-3-(1-cyclohexyl-1H-benzo[d][1,2,3]triazol-5-yl)-1,2,4-oxadiazole]",>6.5,>5,> 75%,> 75%,,
"CCC1(CC)CC(=O)c2cc(-c3nc(-c4ccn[nH]4)no3)ccc2O1 [Compound 470, 6-(3-(1H-pyrazol-5-yl)-1,2,4-oxadiazol-5-yl)-2,2-diethylchroman-4-one]",<6.5,<5,,,,
"COc1cc(C)c(-c2noc(-c3ccc4c(c3)nnn4C(C)C)n2)c(OC)c1 [Compound 136, 5-[3-(2,4-dimethoxy-6-methylphenyl)-1,2,4-oxadiazol-5-yl]-1-(propan-2-yl)-1H-1,2,3-benzotriazole]",<6.5,<5,< 75%,< 75%,,
"Cc1ccccc1-c1noc(-c2ccc3c(c2)nnn3C2CC2)n1 [Compound 171, 1-cyclopropyl-5-[3-(2-methylphenyl)-1,2,4-oxadiazol-5-yl]-1H-1,2,3-benzotriazole]",>6.5,>5,,,,
"CC(C)n1ncc2cc(-c3nc(-c4cccc5c4OCCC5)no3)ccc21 [Compound 337, 3-chroman-8-yl-5-(1-isopropylindazol-5-yl)-1,2,4-oxadiazole]",>6.5,>5,> 75%,> 75%,,
"CCC1(CC)CC(=O)c2cc(-c3nc(-c4ccc(Cl)cc4)no3)ccc2O1 [Compound 68, 6-[3-(4-chlorophenyl)-1,2,4-oxadiazol-5-yl]-2,2-diethyl-chroman-4-one]",<6.5,<5,< 75%,< 75%,,
"Cc1cc(C)cc(-c2noc(-c3ccc4c(c3)nnn4C(C)C)n2)c1 [Compound 204, 5-[3-(3,5-dimethylphenyl)-1,2,4-oxadiazol-5-yl]-1-(propan-2-yl)-1H-1,2,3-benzotriazole]",<6.5,>5,> 75%,> 75%,,
"CC(C)n1ccc2cc(-c3nc(-c4ccccc4Br)no3)ccc21 [Compound 322, 3-(2-bromophenyl)-5-(1-isopropyl-1H-indol-5-yl)-1,2,4-oxadiazole]",>6.5,>5,> 75%,> 75%,,
"CCC1(CC)CC(=O)c2cc(-c3nc(-c4sccc4OC)no3)ccc2O1 [Compound 604, 2,2-diethyl-6-(3-(3-methoxythiophen-2-yl)-1,2,4-oxadiazol-5-yl)chroman-4-one]",>6.5,>5,,,,
"O=C1CC2(CCC(F)(F)CC2)Oc2ccc(-c3nc(-c4ccncc4)no3)cc21 [Compound 217, 4′,4′-difluoro-6-[3-(pyridin-4-yl)-1,2,4-oxadiazol-5-yl]-3,4-dihydrospiro[1-benzopyran-2,1′-cyclohexane]-4-one]",<6.5,<5,,,,
"CCCn1nnc2cc(-c3nc(-c4cccc(C(F)(F)F)c4)no3)ccc21 [Compound 242, 1-propyl-5-{3-[3-(trifluoromethyl)phenyl]-1,2,4-oxadiazol-5-yl}-1H-1,2,3-benzotriazole]",<6.5,<5,< 75%,< 75%,,
"COc1cccc(-c2csc(-c3ccc4c(ccn4C(C)C)n3)n2)c1 [Compound 410, 2-(1-isopropylpyrrolo[3,2-b]pyridin-5-yl)-4-(3-methoxyphenyl)thiazole]",<6.5,<5,,,,
"COc1ccc(-c2cnc(-c3ccc4c(c3)nnn4C(C)C)s2)cc1 [Compound 109, 2-(1-isopropyl-1H-benzo[d][1,2,3]triazol-5-yl)-5-(4-methoxyphenyl)thiazole]",<6.5,>5,< 75%,< 75%,,
"COc1ccccc1-c1cnc(-c2ccc3c(c2)nnn3C(C)C)s1 [Compound 184, 2-(1-isopropyl-1H-benzo[d][1,2,3]triazol-5-yl)-5-(2-methoxyphenyl)thiazole]",<6.5,<5,,,,
"CC(C)n1ccc2cc(-c3nc(-c4cccc5c4OCO5)no3)ccc21 [Compound 326, 3-(benzo[d][1,3]dioxol-4-yl)-5-(1-isopropyl-1H-indol-5-yl)-1,2,4-oxadiazole]",<6.5,>5,> 75%,> 75%,,
"CC(C)n1nnc2cc(-c3noc(-c4ccccc4F)n3)ccc21 [Compound 307, 5-(2-fluorophenyl)-3-(1-isopropyl-1H-benzo[d][1,2,3]triazol-5-yl)-1,2,4-oxadiazole]",>6.5,>5,> 75%,> 75%,,
"COc1ccccc1-c1noc(-c2ccc3c(cnn3C(C)C)c2)n1 [Compound 370, 5-(1-isopropyl-1H-indazol-5-yl)-3-(2-methoxyphenyl)-1,2,4-oxadiazole]",>6.5,>5,,,,
"O=C1CCc2cc(-c3nc(-c4cccnc4)no3)ccc2N1 [Compound 386, 6-[3-(pyridin-3-yl)-1,2,4-oxadiazol-5-yl]-1,2,3,4-tetrahydroquinolin-2-one]",<6.5,<5,,,,
"CCC1(CC)CC(=O)c2cc(-c3nc(-c4ccccn4)no3)ccc2O1 [Compound 111, 2,2-diethyl-6-[3-(2-pyridyl)-1,2,4-oxadiazol-5-yl]chroman-4-one]",<6.5,<5,> 75%,> 75%,,
"COc1cccnc1-c1noc(-c2ccc3c(c2)nnn3C(C)C)n1 [Compound 627, 5-(1-isopropyl-1H-benzo[d][1,2,3]triazol-5-yl)-3-(3-methoxypyridin-2-yl)-1,2,4-oxadiazole]",<6.5,<5,> 75%,> 75%,,
"CC(C)(CO)n1nnc2cc(-c3noc(-c4ccc5nc[nH]c5c4)n3)ccc21 [Compound 642, 2-(5-(5-(1H-benzo[d]imidazol-6-yl)-1,2,4-oxadiazol-3-yl)-1H-benzo[d][1,2,3]triazol-1-yl)-2-methylpropan-1-ol]",<6.5,<5,,,,
"Cc1ccncc1-c1noc(-c2ccc3nnn(CC(C)C)c3c2)n1 [Compound 3, 1-(2-methylpropyl)-6-[3-(4-methylpyridin-3-yl)-1,2,4-oxadiazol-5-yl]-1H-1,2,3-benzotriazole]",>6.5,>5,,,,
